Reference: patent US11512203B2, “Water-soluble azo compound or salt thereof, ink and recording medium” (Nippon Kayaku Kabushiki Kaisha, priority 2016, dated 2022)
Each block holds one molecule with its values, some of them ahead of it.

What was measured:
Assay type in all cases: physicochemical
[1] = Xenon light resistance test, inks of Examples 1, 2 (Table 48); conditions: xenon 100 klux, 168 hours, 24° C., 60% RH, 55% density gradation, grade of coloring matter persistence rate; for Results from light resistance tests, Glossy paper 3: ink on Brother BP71G; for Results from light resistance tests, Glossy paper 1: ink on Canon Photograph paper, platinum grade (PT-201); for Results from light resistance tests, Glossy paper 4: ink on FUJIFILM Gasai Photo-finishing Pro; for Results from light resistance tests, Glossy paper 2: ink on Seiko Epson Photograph paper Crispia
Method: Components shown in Table 47 below were mixed to obtain solutions, which were then subjected to precision filtration through 0.45 μm membrane filters to prepare inks of Examples 1, 2 and Comparative Examples 1, 2. The numerical values in the table are in terms of “parts,” and the symbol “-” means that that component is not included. In Table 47 below, the component […] is indicated as “remainder”.
(§1) Ink-jet recording was performed with an ink-jet printer (Canon, Inc., Product name: PIXUS ip7230) to allow each of the inks from Examples 1, 2 and Comparative Examples 1, 2 to be attached on the following glossy papers 1 to 4. Upon performing recording, image patterns were created so that the density can be obtained in a gradation of 6 levels: 100%, 85%, 70%, 55%, 40%, and 25% to obtain a half-tone recorded article. The resulting recorded article was used as a test piece to perform the following tests.
(§2) Glossy paper 1: Canon, Inc., Product name: Canon Photograph paper, platinum grade (PT-201)
(§3) Glossy paper 2: Seiko Epson Corporation, Product name: Photograph paper Crispia
(§4) Glossy paper 3: Brother Industries, Ltd., Product name: BP71G
(§5) Glossy paper 4: FUJIFILM Corporation, Product name: Gasai Photo-finishing Pro
When required, color measurements were performed for a recorded image using a colorimeter (Product name SpectroEye from X-rite, Inc.). Color measurements were performed under the conditions of a density standard of ANSI A, a wide viewing angle of 2 degrees, a light source of D50.
A test piece with a holder was placed in a xenon weatherometer XL75 (Suga Test Instruments Co., Ltd.), and irradiated for 168 hours at a temperature of 24° C., a humidity of 60% RH, and an illuminance of 100 klux. A gradation portion with a density of 55% of each test piece was subjected to color measurements of reflection densities before and after the test. A coloring matter persistence rate was computed from the reflection densities obtained, and evaluation was performed using the following 3-grade criteria.
A coloring matter persistence rate of 85% or more: A A coloring matter persistence rate of 81% or more and less than 85%: B
A coloring matter persistence rate of less than 81%: C
(Formula for Computing Coloring Matter Persistence Rate) Coloring matter persistence rate (%)=(reflection density after test/reflection density before test)×100

[2] = Xenon light resistance test, ink of Example 4 (Table 50); conditions: for each glossy paper (Table 50)
Method: An ink of Example 4 was prepared as in Example 1 except that the compound represented by the above formula (104) was used instead of the compound represented by the above formula (101).
as §1, with “from Examples 4 and Comparative” for “from Examples 1, 2 and Comparative”, “1, 2 above to be” for “1, 2 to be”
as §2, §3, §4, §5
When required, color measurements of a recorded image were performed using a colorimeter (Product name SpectroEye from X-rite, Inc.). Color measurements were performed under the conditions of a density standard of DIN NB, a wide viewing angle of 2 degrees, a light source of D65. […]

[3] = Xenon light resistance test, inks of Examples 10 to 12 (Table 53); conditions: Glossy paper 1 Canon GL-101, 2 Epson Crispia, 3 Brother BP71G
Method: Inks of Examples 10 to 12 were prepared as in Example 1 except that the compounds represented by the above formulae (110) to (112) were used, respectively, instead of the compound represented by the above formula (101).
as §1, with “from Examples 10 to 12 and Comparative” for “from Examples 1, 2 and Comparative”, “1, 2 above to be” for “1, 2 to be”, “1 to 3. Upon performing” for “1 to 4. Upon performing”
(§6) Glossy paper 1: Canon, Inc., Product name: Canon Photograph paper, gold grade (GL-101)
as §3, §4
(§7) When required, color measurements of a recorded image were performed using a colorimeter (Product name SpectroEye from X-rite, Inc.). Color measurements were performed under the conditions of a density standard of ANSI A, a wide viewing angle of 2 degrees, a light source of D50. […]

[4] = Xenon light resistance test, ink of Example 13 (Table 54); conditions: Glossy paper 1 Canon GL-101, 2 Epson Photograph paper <glossy>, 3 FUJIFILM Gasai Photo-finishing Pro
Method: An ink of Example 13 was prepared as in Example 1 except that the compound represented by the above formula (113) was used instead of the compound represented by the above formula (101).
as §1, with “inks from Example 13 and Comparative” for “inks from Examples 1, 2 and Comparative”, “1, 2 above to be” for “1, 2 to be”, “1 to 3. Upon performing” for “1 to 4. Upon performing”
as §6
Glossy paper 2: Seiko Epson Corporation, Product name: Photograph paper
Glossy paper 3: FUJIFILM Corporation, Product name: Gasai Photo-finishing Pro
as §7

[5] = Xenon light resistance test, ink of Example 16 (Table 56)
Method: An ink of Example 16 was prepared as in Example 1 except that the compound represented by the above formula (116) was used instead of the compound represented by the above formula (101).
as §1, with “inks from Example 16 and Comparative” for “inks from Examples 1, 2 and Comparative”, “1, 2 above to be” for “1, 2 to be”
as §2
Glossy paper 2: Canon, Inc., Product name: Canon Photograph paper, gold grade (GL-101)
Glossy paper 3: Seiko Epson Corporation, Product name: Photograph paper Crispia
Glossy paper 4: Brother Industries, Ltd., Product name: BP71G
as §7

[6] = Xenon light resistance test, ink of Example 17 (Table 57)
Method: An ink of Example 17 was prepared as in Example 1 except that the compound represented by the above formula (117) was used instead of the compound represented by the above formula (101).
as §1, with “inks from Example 17 and Comparative” for “inks from Examples 1, 2 and Comparative”, “1, 2 above to be” for “1, 2 to be”, “glossy papers 1, 2. Upon performing” for “glossy papers 1 to 4. Upon performing”
as §2
Glossy paper 2: FUJIFILM Corporation, Product name: Gasai Photo-finishing Pro
When required, color measurements of a recorded image were performed using a colorimeter (Product name SpectroEye from X-rite, Inc.). Color measurements were performed under the conditions of a density standard of ANSI A, a wide viewing angle of 2 degrees, a light source of D50.
A test piece with a holder was placed in a xenon weatherometer XL75 (Suga Test Instruments Co., Ltd.), and irradiated for 168 hours at a temperature of 24° C., a humidity of 60% RH, and an illuminance of 100 klux. […]

SMILES: O=S(=O)(O)CCCOc1cc(N=Nc2ccc(Cl)c(S(=O)(=O)O)c2)c(Cl)cc1Nc1nc(NCCO)nc(Nc2cc(Cl)c(N=Nc3ccc(Cl)c(S(=O)(=O)O)c3)cc2OCCCS(=O)(=O)O)n1 [Comparative Example 1]
Results from light resistance tests, Glossy paper 3 [1]: B (A coloring matter persistence rate of 81% or more and less than 85%) | Results from light resistance tests, Glossy paper 1 [1]: B (A coloring matter persistence rate of 81% or more and less than 85%) | Results from light resistance tests, Glossy paper 4 [1]: C (A coloring matter persistence rate of less than 81%) | Results from light resistance tests, Glossy paper 2 [1]: B (A coloring matter persistence rate of 81% or more and less than 85%)

SMILES: COc1cc(N=Nc2cccc(S(=O)(=O)O)c2)ccc1NC(=O)Nc1ccc(N=Nc2cccc(S(=O)(=O)O)c2)cc1OC [Comparative Example 2, C.I. Direct Yellow 132]
Results from light resistance tests, Glossy paper 3 [1]: B (A coloring matter persistence rate of 81% or more and less than 85%) | Results from light resistance tests, Glossy paper 1 [1]: B (A coloring matter persistence rate of 81% or more and less than 85%) | Results from light resistance tests, Glossy paper 4 [1]: B (A coloring matter persistence rate of 81% or more and less than 85%) | Results from light resistance tests, Glossy paper 2 [1]: C (A coloring matter persistence rate of less than 81%)

light resistance tests, results compared with Comparative Examples 1, 2 [2]: better results
SMILES: COCCCNc1nc(Nc2cc(Cl)c(N=Nc3ccc(Cl)c(S(=O)(=O)O)c3)cc2OCCCS(=O)(=O)O)nc(Nc2cc(Cl)c(N=Nc3ccc(Cl)c(S(=O)(=O)O)c3)cc2OCCCS(=O)(=O)O)n1 [Example 4]

light resistance results as compared with Comparative Example 2 [3]: better results for each glossy paper
SMILES: CCNc1nc(Nc2cc(Cl)c(N=Nc3ccc(Cl)c(S(=O)(=O)O)c3)cc2OCCCS(=O)(=O)O)nc(Nc2cc(Cl)c(N=Nc3ccc(Cl)c(S(=O)(=O)O)c3)cc2OCCCS(=O)(=O)O)n1 [Example 10]

light resistance results as compared with Comparative Example 2 [4]: better results for each glossy paper
SMILES: O=S(=O)(O)CCCOc1cc(N=Nc2ccc(Cl)c(S(=O)(=O)O)c2)c(Cl)cc1Nc1nc(Nc2cc(Cl)c(N=Nc3ccc(Cl)c(S(=O)(=O)O)c3)cc2OCCCS(=O)(=O)O)nc(NC(CO)CO)n1 [Example 13]

light resistance as compared with Comparative Examples 1, 2 (conclusion) [5]: superior light resistance | light resistance results as compared with Comparative Examples 1, 2 [5]: good results for each glossy paper
SMILES: O=S(=O)(O)CCCOc1cc(N=Nc2ccc(Cl)c(S(=O)(=O)O)c2)c(Cl)cc1Nc1nc(NCC2CCCO2)nc(Nc2cc(Cl)c(N=Nc3ccc(Cl)c(S(=O)(=O)O)c3)cc2OCCCS(=O)(=O)O)n1 (stereo not drawn) [Example 16]

light resistance as compared with Comparative Examples 1, 2 (conclusion) [6]: superior light resistance | light resistance results as compared with Comparative Examples 1, 2 [6]: good results for each glossy paper
SMILES: O=S(=O)(O)CCCOc1cc(N=Nc2ccc(Cl)c(S(=O)(=O)O)c2)c(Cl)cc1Nc1nc(Nc2cc(Cl)c(N=Nc3ccc(Cl)c(S(=O)(=O)O)c3)cc2OCCCS(=O)(=O)O)nc(N2CCCC2)n1 [Example 17]
